One data set has as its system PMA-treated HL-60 cells. Description: Lipoxin metabolism / bio-half-life assay with phorbol ester-treated HL-60 cells. Particulars: at times up to two hours. Type of data set: in vitro ADME, human. The method, then:
HL-60 cells were purchased from American Type Culture Collection (Rockville, Md.), and other cell culture reagents were from GIBCO (Grand Island, N.Y.). Versene (EDTA) was from Whittaker Bioproducts (Walkersville, Md.). Synthetic 11,12-acetylenic LXA4 methyl ester and LXs were from Cascade Biochemical (Reading, U.K.). 15(S)-15-m-PGE1, PGE1, and 5-HETE were from Cayman Chemical Co. (Ann Arbor, Mich.). [11,12-^3H]LXA4 was prepared from 11,12-acetylenic LXA4 using Lindlar catalyst as a custom tritiation (NET-259, lot 0 2793-275, New England Nuclear, Boston, Mass.). Tritiated products were isolated using RP-HPLC (Fiore et al. (1992) J. Biol. Chem. 267:16168; Serhan, C. N. (1990) Meth. Enzymol. 187:167). Methoxyamine and NAD were from Sigma Chemical Company (St. Louis, Mo.). Manganese dioxide and Adams reagent were from Aldrich Chemical Co. (Milwaukee, Wis.).
Human PMN were obtained from healthy volunteers by gradient centrifugation of heparinized fresh venous blood (Böyum, A. ([…]) Scand. J. Clin. Lab. Invest. 21:77). HL-60 cells were seeded in RPMI supplemented with penicillin (100 U/ml), streptomycin (100 μ/ml), fetal bovine serum (10%) (Hyclone, Logan, Utah) and incubated (37° C. with 5% CO2 atmosphere) in plastic 250 ml flasks. Individual flasks containing […] HL-60 cells/ml were incubated in the presence or absence of phorbol 12-myristate 13-acetate (PMA) (10 or 16 nM, 24-27 h) and adherence was monitored for induction of macrophage-like phenotype as in Collins, S. J. (1987) Blood 70:1233. […]
Incubations with eicosanoids were stopped with cold methanol containing either PGB2 or 5-HETE as internal standards (5-HETE was used when 15-oxo-ETE was quantified). […] Formation of 15-oxo-ETE by 100,000 g supernatants (cf. Agins, A. P. et al. (1987) Agents Actions 21:397; Xun, C-Q. et al.(1991) Biochem. J. 279:553; and Sok, D-E. et al. (1988) Biochem. Biophys. Res. Commun. 156:524) was quantified after RP-HPLC using an ODS column (4.6 mm×25 cm) eluted with methanol/H2O/acetic acid (70:30:0.01, v/v/v) monitored at 280 nm with a flow rate of 1 ml/min. […] On-line spectra were recorded using a diode array detector (Hewlett-Packard 1040M series II) equipped with HPLC^3D ChemStation software (DOS series). […]
The “bio-half-life” of compounds 1-8 was assessed using phorbol ester-treated human promyelocytic leukemia (HL-60) cells as described in Example 2. […]

Data set [1] concerns neutrophil adhesion to endothelial cells. Description: Neutrophil adhesion assay. Type of data set: cell-based. Particulars: read-out: IC50, PMN adhesion triggered by LTB4 to human endothelial cells; triggered by leukotriene B4. The procedure: Several of the preferred LX analogs (shown structurally as compounds 1 through 8 above) were prepared by total synthesis as described in Example 1. Following preparation and isolation of these compounds via HPLC, compounds were first assessed to determine whether they retain biological activity using the neutrophil adhesion assay and epithelial cell transmigration assays (as described in Nash, S et al., (1987) J. Clin. Invest. 80:1104-1113; Nash, S et al., (1991) J. Clin. Invest. 87: 1474-1477; Parkos, C. A. et al., (1991) J. Clin. Invest. 88:1605-1612; Parkos, C. A. et al. (1992) J. Cell. Biol. 117:757-764; Madara J. L. et al., (1992) J. Tiss. Cult. Meth. 14:209-216).

`CCCCCC(C)(O)C=CC=CC=CC=CC(O)C(O)CCCC(=O)O` (centres unmarked) [compound 2, 15-methyl-LXA4]: in the data set with PMA-treated HL-60 cells, the “recovery in the incubation medium (bio-half-life)” value is recorded as “quantitatively recovered”. Also, the IC50 in data set [1] was roughly 1 nM.
